Drawing on patent US10167297B2, “Substituted pyridine compounds having herbicidal activity” (BASF SE, priority 2014, dated 2019), this text covers Herbicidal activity and plant injury for one compound.

Each structure is given as a SMILES string.

Common to all, as to assay type: in vivo
One test relates to Poa annua. Nature of the test: greenhouse post-emergence herbicidal activity (use examples). As to conditions: POAAN, 0.031 kg/ha, scale 0 to 100. The source says:
(§1) The seeds of the test plants were sown separately for each species. For the pre-emergence treatment, the active ingredients, which had been suspended or emulsified in water, were applied directly after sowing by means of finely distributing nozzles. The containers were irrigated gently to promote germination and growth and subsequently covered with transparent plastic hoods until the plants had rooted. This cover caused uniform germination of the test plants, unless this had been impaired by the active ingredients. For the post-emergence treatment, the test plants were first grown to a height of 3 to 15 cm, depending on the plant habit, and only then treated with the active ingredients which had been suspended or emulsified in water. For this purpose, the test plants were either sown directly and grown in the same containers, or they were first grown separately as seedlings and transplanted into the test containers a few days prior to treatment. Depending on the species, the plants were kept at 10-25° C. or 20-35° C., respectively. The test period extended over 2 to 4 weeks. During this time, the plants were tended, and their response to the individual treatments was evaluated. Evaluation was carried out using a scale from 0 to 100. 100 means no emergence of the plants, or complete destruction of at least the aerial moieties, and 0 means no damage, or normal course of growth. A good herbicidal activity is given at values of at least 70 and a very good herbicidal activity is given at values of at least 85. The plants used in the greenhouse experiments were of the following species: [table]

The next test deals with Stellaria media. The test is described as above. As to conditions: STEME, 0.031 kg/ha, scale 0 to 100.
From the text: as §1

The next test concerns Thlaspi arvense. The test is described as above. As to conditions: THLAR, 0.031 kg/ha, scale 0 to 100.
From the text: as §1

The next test relates to Zea mays. Nature of the test: greenhouse post-emergence herbicidal activity on crop plant corn (use examples). As to conditions: ZEAMX (corn, crop plant), 0.031 kg/ha, scale 0 to 100.
From the text: as §1

For the compound `CCC(=O)N(C)c1c(Cl)ccc(C2=C(O)c3ncccc3C(C)(C)S2(=O)=O)c1Cl` [Compound I-10, N-[2,6-dichloro-3-(8-hydroxy-5,5-dimethyl-6,6-dioxo-thiopyrano[4,3-b]pyridin-7-yl)phenyl]-N-methyl-propanamide], the results for the Herbicidal activity in the test on Poa annua, in the test on Stellaria media and with Thlaspi arvense were 98, 100 and 100, respectively. Moreover, the plant injury (in general, the degree to which the test organism was suppressed or injured, in per cent) at 31 g/ha with Zea mays is 30%.
